The target in this test is T1, voltage-gated Na+ channel 1.6 (Nav1.6) (Homo sapiens, UniProt Q9UQD0).
T1 construct: gene SCN8A; hNav1.6 channel stably expressed in HEK293 cells
As to the kind of experiment: whole-cell voltage-clamp electrophysiology in HEK-Nav1.[…] cells, peak transient INa dose-response. Type of test: cell-based.

pIC50: −log10 of the molar value. Where a SMILES comes first, the peptide text is derived from it. The star is where a group is joined. Fmoc = O=C(OCC1c2ccccc2-c2ccccc21)*; tBu = CC(C)(C)*

T1 sequence (Q9UQD0 whole entry): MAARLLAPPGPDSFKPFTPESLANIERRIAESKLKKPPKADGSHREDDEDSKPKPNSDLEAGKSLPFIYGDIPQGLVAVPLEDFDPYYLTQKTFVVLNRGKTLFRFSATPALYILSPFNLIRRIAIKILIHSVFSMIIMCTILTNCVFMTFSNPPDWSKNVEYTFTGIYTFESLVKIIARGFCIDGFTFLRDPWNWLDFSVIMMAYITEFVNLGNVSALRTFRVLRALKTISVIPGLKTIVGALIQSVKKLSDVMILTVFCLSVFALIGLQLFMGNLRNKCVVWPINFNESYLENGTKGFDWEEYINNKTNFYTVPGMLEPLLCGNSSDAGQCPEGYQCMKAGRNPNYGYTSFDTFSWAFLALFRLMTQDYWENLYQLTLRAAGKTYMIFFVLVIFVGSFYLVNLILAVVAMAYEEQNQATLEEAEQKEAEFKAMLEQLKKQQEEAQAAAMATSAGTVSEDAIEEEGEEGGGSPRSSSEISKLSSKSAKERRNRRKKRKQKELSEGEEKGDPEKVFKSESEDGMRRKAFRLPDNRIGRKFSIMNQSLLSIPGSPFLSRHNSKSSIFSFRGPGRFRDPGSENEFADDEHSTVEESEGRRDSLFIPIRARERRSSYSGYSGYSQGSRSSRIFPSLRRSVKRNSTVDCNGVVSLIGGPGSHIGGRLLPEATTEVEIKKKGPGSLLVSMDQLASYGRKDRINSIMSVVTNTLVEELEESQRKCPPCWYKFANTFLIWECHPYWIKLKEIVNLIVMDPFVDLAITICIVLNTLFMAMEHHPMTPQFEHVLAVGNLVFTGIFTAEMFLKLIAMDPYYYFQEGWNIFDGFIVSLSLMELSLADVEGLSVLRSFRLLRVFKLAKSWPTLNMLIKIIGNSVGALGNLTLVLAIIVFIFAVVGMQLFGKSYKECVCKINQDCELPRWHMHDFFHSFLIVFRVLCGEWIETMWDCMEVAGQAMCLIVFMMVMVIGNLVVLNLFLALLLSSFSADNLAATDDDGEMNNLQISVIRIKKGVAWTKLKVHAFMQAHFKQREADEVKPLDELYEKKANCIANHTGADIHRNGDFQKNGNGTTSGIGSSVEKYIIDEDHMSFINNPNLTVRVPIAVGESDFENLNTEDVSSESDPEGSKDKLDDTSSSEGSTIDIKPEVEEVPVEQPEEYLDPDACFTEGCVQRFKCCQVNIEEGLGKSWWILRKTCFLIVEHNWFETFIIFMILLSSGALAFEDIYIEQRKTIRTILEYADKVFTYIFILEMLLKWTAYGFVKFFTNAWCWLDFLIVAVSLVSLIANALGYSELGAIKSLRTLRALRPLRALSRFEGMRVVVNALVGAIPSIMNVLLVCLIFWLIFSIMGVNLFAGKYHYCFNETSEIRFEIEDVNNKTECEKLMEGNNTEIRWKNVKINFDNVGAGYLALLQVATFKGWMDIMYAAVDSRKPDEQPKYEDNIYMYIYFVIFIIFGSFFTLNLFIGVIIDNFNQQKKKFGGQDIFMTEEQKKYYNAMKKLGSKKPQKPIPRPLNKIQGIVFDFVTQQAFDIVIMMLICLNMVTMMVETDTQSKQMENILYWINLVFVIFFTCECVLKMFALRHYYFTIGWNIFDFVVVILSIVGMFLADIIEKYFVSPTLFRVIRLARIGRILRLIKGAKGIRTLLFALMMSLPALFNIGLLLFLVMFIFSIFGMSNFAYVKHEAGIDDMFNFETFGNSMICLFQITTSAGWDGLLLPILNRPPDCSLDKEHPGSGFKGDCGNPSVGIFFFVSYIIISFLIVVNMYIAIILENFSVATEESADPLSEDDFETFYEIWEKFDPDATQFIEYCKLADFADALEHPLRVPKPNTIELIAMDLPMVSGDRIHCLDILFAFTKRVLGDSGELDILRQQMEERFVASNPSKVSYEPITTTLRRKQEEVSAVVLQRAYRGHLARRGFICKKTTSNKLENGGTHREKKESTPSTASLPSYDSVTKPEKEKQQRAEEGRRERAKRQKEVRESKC

On to `CC(C)[C@H](NC(=O)[C@H](Cc1ccc(OC(C)(C)C)cc1)NC(=O)[C@H](Cc1ccc(OC(C)(C)C)cc1)NC(=O)OCC1c2ccccc2-c2ccccc21)C(N)=O` [PW201] (Fmoc-Tyr(tBu)-Tyr(tBu)-Val-NH2), for which the negative logarithm of the IC50 (pIC50) (commonly the negative decadic logarithm of the IC50, by convention in mol/L) is 4.82.

These data come from paper PMC8708424, “Pharmacologically Targeting the Fibroblast Growth Factor 14 Interaction Site on the Voltage-Gated Na^+ Channel 1.6 Enables Isoform-Selective Modulation” (International Journal of Molecular Sciences, 2021).
